# In ChEMBL document CHEMBL1201862, “PubChem BioAssay data set” (2004):
# Activity calls are given as the source filed them.
# Experiments:
# Vero = experiment: cells; assay type: functional; conditions: Chlorocebus sabaeus
# [1] = target: T1, Replicative DNA helicase DnaB (Mycobacterium tuberculosis, UniProt P9WMR3); experiment: DnaB intein splicing inhibitors, dose response, biochemical, cell-free fluorescence (AID 449749); assay type: functional
# T1 sequence (P9WMR3 whole entry): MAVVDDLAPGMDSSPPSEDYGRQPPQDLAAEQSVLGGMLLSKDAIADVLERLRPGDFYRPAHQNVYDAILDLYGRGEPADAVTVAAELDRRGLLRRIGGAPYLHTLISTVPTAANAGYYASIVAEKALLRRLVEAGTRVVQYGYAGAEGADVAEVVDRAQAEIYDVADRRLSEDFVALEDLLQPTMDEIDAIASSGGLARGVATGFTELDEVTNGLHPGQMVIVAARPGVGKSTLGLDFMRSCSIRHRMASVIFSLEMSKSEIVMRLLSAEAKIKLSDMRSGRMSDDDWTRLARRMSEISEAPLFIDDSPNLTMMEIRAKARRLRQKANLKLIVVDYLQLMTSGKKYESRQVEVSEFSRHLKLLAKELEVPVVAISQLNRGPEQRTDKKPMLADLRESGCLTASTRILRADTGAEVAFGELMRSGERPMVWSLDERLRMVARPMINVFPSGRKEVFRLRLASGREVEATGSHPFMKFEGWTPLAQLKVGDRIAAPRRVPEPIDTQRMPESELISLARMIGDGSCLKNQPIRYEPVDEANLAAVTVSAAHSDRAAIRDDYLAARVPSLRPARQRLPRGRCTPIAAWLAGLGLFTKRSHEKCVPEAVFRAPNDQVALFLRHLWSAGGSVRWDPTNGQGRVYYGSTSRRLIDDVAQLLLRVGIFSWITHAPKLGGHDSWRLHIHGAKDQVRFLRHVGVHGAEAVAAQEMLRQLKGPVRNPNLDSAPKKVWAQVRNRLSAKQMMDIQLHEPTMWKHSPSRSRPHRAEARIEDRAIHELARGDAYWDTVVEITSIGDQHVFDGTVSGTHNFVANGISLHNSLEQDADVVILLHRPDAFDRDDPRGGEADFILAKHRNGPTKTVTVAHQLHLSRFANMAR
# [2] = Trypanosoma cruzi growth suppression in host cells – NIH3T3 host cells, beta-gal luminescence, confirmation (AID 2044); assay type: functional, cell-based;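 further: intracellular parasites grown in NIH/3T3 mouse fibroblasts as host cells; luminescent beta-galactosidase reporter signal from transgenic T. cruzi replicating inside host cells; inhibitors lower the luminescence signal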
# [3] = NIH3T3 cell viability loss – ATP luminescence, mouse fibroblasts, counter-screen, dose response (AID 2010); assay type: functional, cell-based;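 further: cells exposed to compound for about 90 hours before reading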
# Protein RecA = target: T2, Protein RecA (Mycobacterium tuberculosis, UniProt P9WHJ3); experiment: Fluorescence Cell-Free Homogeneous Dose Retest to Identify Inhibitors of RecA-Intein Splicing Activity. [Related pubchem assays (depositor defined):AID2097, AID2223, AID489010, AID492950]; assay type: functional
# T2 sequence (P9WHJ3 whole entry): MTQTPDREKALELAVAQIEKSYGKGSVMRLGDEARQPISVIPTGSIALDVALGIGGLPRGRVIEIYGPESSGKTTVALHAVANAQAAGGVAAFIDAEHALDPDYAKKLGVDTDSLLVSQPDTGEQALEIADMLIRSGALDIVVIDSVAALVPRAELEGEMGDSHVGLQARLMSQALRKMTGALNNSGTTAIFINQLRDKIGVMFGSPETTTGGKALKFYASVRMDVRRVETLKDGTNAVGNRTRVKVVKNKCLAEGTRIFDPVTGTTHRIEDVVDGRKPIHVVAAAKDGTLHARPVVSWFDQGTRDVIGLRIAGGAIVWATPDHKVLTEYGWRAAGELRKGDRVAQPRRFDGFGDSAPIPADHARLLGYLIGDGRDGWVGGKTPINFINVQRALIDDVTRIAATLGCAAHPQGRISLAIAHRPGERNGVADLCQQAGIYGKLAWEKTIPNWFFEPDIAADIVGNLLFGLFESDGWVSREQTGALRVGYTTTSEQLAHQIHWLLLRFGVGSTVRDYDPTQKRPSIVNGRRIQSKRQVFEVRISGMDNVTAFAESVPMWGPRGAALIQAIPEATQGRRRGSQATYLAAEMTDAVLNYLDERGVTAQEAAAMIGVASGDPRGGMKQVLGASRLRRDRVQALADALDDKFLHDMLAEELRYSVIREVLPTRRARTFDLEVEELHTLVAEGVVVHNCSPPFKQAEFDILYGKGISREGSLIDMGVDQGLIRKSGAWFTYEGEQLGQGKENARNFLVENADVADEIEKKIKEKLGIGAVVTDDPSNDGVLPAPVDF
# [4] = target: T3, Polyadenylate-binding protein 1 (Homo sapiens, UniProt P11940); experiment: MLLE domain peptide-binding blockers, IC50 – biochemical, fluorescence polarization, FITC-PAM2 peptide, dose response (AID 602259); assay type: functional; conditions: read-out: IC50_Mean
# T3 sequence (P11940 whole entry, the tested form may be a part): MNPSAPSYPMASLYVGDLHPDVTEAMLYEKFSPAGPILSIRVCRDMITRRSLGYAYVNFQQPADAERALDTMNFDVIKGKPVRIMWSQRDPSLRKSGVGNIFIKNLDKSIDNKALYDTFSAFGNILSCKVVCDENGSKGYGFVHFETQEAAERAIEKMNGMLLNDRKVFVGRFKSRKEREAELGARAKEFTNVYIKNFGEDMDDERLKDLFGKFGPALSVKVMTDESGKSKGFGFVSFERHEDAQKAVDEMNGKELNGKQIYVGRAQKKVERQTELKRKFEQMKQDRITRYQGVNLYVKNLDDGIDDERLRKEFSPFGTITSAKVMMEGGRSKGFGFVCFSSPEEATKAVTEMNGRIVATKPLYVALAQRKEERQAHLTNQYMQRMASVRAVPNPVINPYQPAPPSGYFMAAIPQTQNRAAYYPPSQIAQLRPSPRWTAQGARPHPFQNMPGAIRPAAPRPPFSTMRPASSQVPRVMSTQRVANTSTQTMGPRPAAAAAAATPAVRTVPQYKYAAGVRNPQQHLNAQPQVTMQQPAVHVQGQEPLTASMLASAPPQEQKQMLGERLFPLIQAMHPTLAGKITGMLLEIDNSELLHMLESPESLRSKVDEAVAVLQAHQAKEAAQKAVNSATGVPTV
# [5] = target: T3, Polyadenylate-binding protein 1; experiment: MLLE binding blockers, Cy5 peptide tracer – biochemical, fluorescence polarization, Cy5-PAM2 peptide, secondary, miRNA deadenylation inhibitor project, dose response (AID 602260); assay type: functional; conditions: read-out: IC50_Mean
# BJ [6] = experiment: BJ-TERT-LT-ST fibroblast viability loss – cell-based, RAS-independent, luminescence, dose response (AID 1935); assay type: functional; conditions: Homo sapiens;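 further: BJ fibroblasts immortalized with TERT plus LT and ST oncogenes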
# BJ [7] = experiment: cells; assay type: functional, cell-based; conditions: Homo sapiens
# BJ [8] = experiment: BJ-TERT fibroblast viability loss – cell-based, RAS-independent, luminescence, dose response (AID 1933); assay type: functional; conditions: Homo sapiens
# [9] = DRD fibroblast viability loss – cell-based, non-viral oncogenic, luminescence, dose response (AID 1934); assay type: functional; conditions: Homo sapiens
# [10] = target: T4, Zinc finger protein mex-5 (Caenorhabditis elegans, UniProt Q9XUB2); experiment: potency of MEX-5 RNA-binding blockers – biochemical, C. elegans, fluorescence polarization, dose response (AID 1960)
# T4 sequence (Q9XUB2 whole entry): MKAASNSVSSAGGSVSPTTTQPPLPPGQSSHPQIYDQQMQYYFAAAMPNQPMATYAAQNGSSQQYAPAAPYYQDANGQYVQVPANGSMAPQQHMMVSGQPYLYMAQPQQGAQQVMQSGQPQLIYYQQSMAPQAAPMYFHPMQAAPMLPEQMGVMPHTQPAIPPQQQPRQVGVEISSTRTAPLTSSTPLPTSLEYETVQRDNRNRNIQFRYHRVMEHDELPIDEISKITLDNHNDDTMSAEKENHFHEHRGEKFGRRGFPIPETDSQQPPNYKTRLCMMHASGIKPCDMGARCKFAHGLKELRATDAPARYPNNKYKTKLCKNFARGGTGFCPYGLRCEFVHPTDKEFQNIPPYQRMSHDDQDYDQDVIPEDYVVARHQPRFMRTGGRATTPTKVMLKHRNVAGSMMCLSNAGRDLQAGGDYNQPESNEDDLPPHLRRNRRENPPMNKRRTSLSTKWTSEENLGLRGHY
# Cytochrome P450 2C19 = Cytochrome P450 2C19 (Homo sapiens, UniProt P33261); experiment: Cytochrome panel assay with activity outcomes. Panel member name: p450-cyp2c19 Compounds with AC50 equal or less than 10 uM are considered active; assay type: functional; conditions: read-out: AC50
# Cytochrome P450 2C19, sequence (P33261 whole entry, the tested form may be a part): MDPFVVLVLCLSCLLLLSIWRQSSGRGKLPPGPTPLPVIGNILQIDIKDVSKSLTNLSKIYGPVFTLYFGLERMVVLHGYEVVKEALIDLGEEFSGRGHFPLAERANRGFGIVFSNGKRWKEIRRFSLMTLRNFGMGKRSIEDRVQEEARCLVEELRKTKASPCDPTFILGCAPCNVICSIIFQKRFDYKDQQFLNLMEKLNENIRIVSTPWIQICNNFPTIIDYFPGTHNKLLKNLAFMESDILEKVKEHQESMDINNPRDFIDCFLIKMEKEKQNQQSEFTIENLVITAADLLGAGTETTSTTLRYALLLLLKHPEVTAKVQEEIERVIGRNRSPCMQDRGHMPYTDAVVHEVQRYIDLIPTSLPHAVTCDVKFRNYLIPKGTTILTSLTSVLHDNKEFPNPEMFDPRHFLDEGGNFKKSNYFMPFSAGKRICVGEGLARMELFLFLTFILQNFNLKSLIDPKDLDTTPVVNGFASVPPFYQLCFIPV
# [11] = target: T5, RNA-binding protein pos-1 (Caenorhabditis elegans, UniProt G5EF15); experiment: disruptors of C. elegans POS-1 RNA interaction – biochemical, fluorescence polarization, dose response (AID 1964);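 further: purified POS-1 fused to maltose binding protein made in E. coli; potency of compounds blocking POS-1 binding to fluorescent RNA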
# T5 sequence (G5EF15 whole entry): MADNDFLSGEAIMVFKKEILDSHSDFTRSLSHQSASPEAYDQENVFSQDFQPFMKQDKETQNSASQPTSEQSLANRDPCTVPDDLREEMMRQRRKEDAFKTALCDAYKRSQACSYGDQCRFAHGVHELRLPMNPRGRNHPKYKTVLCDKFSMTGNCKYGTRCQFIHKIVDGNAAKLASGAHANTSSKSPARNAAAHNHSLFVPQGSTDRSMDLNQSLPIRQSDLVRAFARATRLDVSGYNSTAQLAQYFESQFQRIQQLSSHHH
# [12] = Luminescence Cell-Based Dose Response HTS to Identify Activators of Luciferase Translation or Activity in H4 […] Cells. [Related pubchem assays: 1829 (Project Summary), 1814 (Primary HTS)]; assay type: functional
# H4 = experiment: Luminescence Cell-Based Dose Response HTS to Identify Activators of 5'UTR Stem-Loop Driven Prion Protein mRNA Translation in H4 Neuroglioblastoma Cells. [Related pubchem assays: 1829 (Project Summary), 1814 (Primary HTS)]; assay type: functional; conditions: Homo sapiens
# [13] = Luminescence Cell-Based Dose Confirmation HTS to Identify Activators of 5'UTR Stem-Loop Driven Alpha-Synuclein mRNA Translation in H4 Neuroglioblastoma Cells. [Related pubchem assays: 1829 (Project Summary), 1814 (Primary HTS)]; assay type: functional
# [14] = viability of PTEN-deleted HCT116 cells – cell-based, HCT116 PTEN knockout, dose response (AID 1047); assay type: functional;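 further: HCT116 colon tumor cells with PTEN knocked out; cells exposed to compound for 60 hours before readout; potency for loss of cell viability measured by luminescence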
# [15] = tested on: Streptococcus sp. 'group A'; experiment: Streptococcus pyogenes SK(-)GAS viability under kanamycin – luminescence, BacTiterGlo, confirmation, counter-screen for streptokinase expression inhibitor project, dose response (AID 1900); assay type: functional, organism-based
# Streptococcus = experiment: GAS UMAA2166 growth inhibition – luminescence, BacTiterGlo, counter-screen for streptokinase expression inhibitor project, dose response (AID 1915); assay type: functional, organism-based;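 further: potency for reduction of bacterial viability or growth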
# [16] = viability of HCT116 lacking mutant beta-catenin – cell-based, human colon tumor, dose response (AID 1045); assay type: functional;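 further: HCT116 colon tumor cells with beta catenin knocked out; cells exposed to compound for 60 hours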
SMILES,CC50 (Vero),IC50 [4],IC50 [5],further results
C=COC(=O)NC1CCc2cc(OC)c(OC)c(OC)c2-c2ccc(SC)c(=O)cc21 (stereo not given),< 0.05 µM (active),–,–,–
O=C(CCl)N(CCc1ccccc1)CCc1ccccc1,8.89 µM (active),–,–,AC50 [1]: 10 µM (active); EC50 [2]: 2.07 µM (active); EC50 [3]: > 30 µM (not active); EC50 (Protein RecA): 2.36 µM (active)
COc1cc(C(=O)NC2=NCCS2)ccc1OCc1c(C)noc1C,–,> 66 µM (inactive),> 66 µM (inactive),–
Cc1ccccc1SCC(=O)NC1CCOC1=O (stereo not given),–,> 66 µM (inactive),> 66 µM (inactive),–
COc1ccc(C(=O)/C=C/c2ccccc2)c(OC)c1,12.4 µM (active),–,–,–
O=C(CSC1=Nc2ccccc2C2=NC(CC(=O)NCc3ccco3)C(=O)N12)NCc1ccco1 (stereo not given),–,> 66 µM (inactive),> 66 µM (inactive),–
Cc1cccn2c(=O)c3cc(C(=O)NCc4ccco4)c(=N)n(CCOCCO)c3nc12,–,15.2 µM (active),> 66 µM (inactive),–
O=C1Cc2c(-c3ccccc3)cc(-c3cccc(Cl)c3)nc2-c2ccccc2N1,11.4 µM (active),–,–,–
CC1(C)Cc2c(c(-c3ccco3)[nH]c(=O)c2C#N)CS1,–,26 µM (inactive),> 66 µM (inactive),–
O=Cc1[nH]c2ccccc2c1N(C(=O)CCl)c1ccc([N+](=O)[O-])cc1,–,–,–,EC50 (BJ [6]): 4.03 µM (active); EC50 (BJ [7]): 7.89 µM (active); EC50 (BJ [8]): 5.65 µM (inconclusive); EC50 [9]: 5.75 µM (inconclusive)
COc1ccc(C2C(C#N)=C(N)OC3=C2C(=O)CC(C)(C)C3)c([N+](=O)[O-])c1OC (stereo not given),–,> 66 µM (inactive),> 66 µM (inactive),EC50 [10]: > 300 µM (not active); AC50 (Cytochrome P450 2C19): 14.1 µM (inconclusive); EC50 [11]: > 300 µM (not active)
CC(=O)O[C@H]1C[C@]2(O)[C@@H]3CC[C@@H]4C[C@@H](O)CC[C@]4(C)[C@H]3CC[C@]2(C)[C@H]1C1=CC(=O)OC1,0.46 µM (active),–,–,–
Cc1nc(NC(=O)c2ccco2)sc1C(=O)O,–,–,–,EC50 (BJ [6]): > 150 µM (inconclusive); EC50 (BJ [7]): 4.14 µM (active); EC50 (BJ [8]): 7.4 µM (active); EC50 [9]: 10.3 µM (active)
O=C(CSC1=NCCS1)Nc1nc2ccccc2s1,–,> 66 µM (inactive),> 66 µM (inactive),EC50 [12]: 12.5 µM (active); EC50 (H4): 9.16 µM (active); EC50 [13]: 15 µM (active)
CCOc1ccccc1CNC(=O)c1cn(C)c(=O)c2c1c1ccccc1n2C,> 25 µM (active),–,–,–
CCCCCOc1ccc(/C(C)=N/NC2=NCCN2)cc1,> 25 µM (active),–,–,–
CN(C)c1n/c(=N/c2cccc(Cl)c2)ss1,21.6 µM (active),–,–,–
Cn1c(CCC(=O)O)nc2cc(S(=O)(=O)N3CCCCC3)ccc21,–,> 66 µM (inactive),> 66 µM (inactive),–
COc1ccc(CNC(=O)CN(Cc2ccc(C)cc2)C(=O)c2csnn2)cc1,–,> 66 µM (inactive),> 66 µM (inactive),–
Cc1cccc(-c2nnc(NC(=O)c3ccc(Cl)cc3)o2)c1,> 25 µM (active),–,–,EC50 [14]: 23.1 µM (active); EC50 [15]: 0.099 µM (active); EC50 (Streptococcus): 0.81 µM (active); EC50 [16]: 17.4 µM (active)
COc1cccc(/C=C2\SC(=S)N(CCC(=O)N3CCCCC3CCO)C2=O)c1 (stereo not given),15.9 µM (active),–,–,–
O=C(O)C1CSC(c2ccncc2)N1 (stereo not given),–,> 66 µM (inactive),> 66 µM (inactive),–
Cc1ccc2ncccc2c1NC(=S)NC(=O)c1ccccc1,–,> 66 µM (inactive),> 66 µM (inactive),–
Cc1ccc(S(=O)(=O)N2C[C@H]3n4c(=O)ccc(=O)n4C[C@H](OC(=O)NCC4CCCCC4)[C@@]3(O)C2)cc1,> 25 µM (active),–,–,–
